Assay results: patent US20250161216A1, “CATIONIC LIPID ANALOGUES, COMPOSITIONS AND USES THEREOF” (GUANGZHOU LIDE BIOMEDICINE TECHNOLOGY CO., LTD., priority 2022, published 2025)

Experiments:
C57BL/6 mice [1] = assay: In vivo expression level of Luciferase-mRNA delivered by intramuscular injection (bioluminescence imaging); conditions: mRNA-loaded nanoparticles, intramuscular (leg muscle), 5 μg Luciferase-mRNA, 6 hours
Description: Luciferase-mRNA was used as an mRNA model; and the cationic lipid analogues of Examples 1-5 were used to prepare drug-loaded nanoparticles according to the method of Example 6.
100 μL of nanoparticles containing 5 μg Luciferase-mRNA or the drug-loaded nanoparticles prepared above were injected into the leg muscles of 6-8 week-old C57BL/6 mice, and 200 μL of 1×PBS solution containing 3 mg D-Luciferin potassium salt was intraperitoneally injected into the mice 6 hours later. After waiting for 10 minutes, an in vivo expression level of the mRNA was evaluated by bioluminescence imaging.

C57BL/6 mice [2] = assay: In vivo expression level of Luciferase-mRNA delivered by intravenous injection (bioluminescence imaging); conditions: mRNA-loaded nanoparticles, intravenous (tail vein), 5 μg Luciferase-mRNA, 6 hours; for Fluorescence intensity of liver / Bioluminescence intensity: compounds of Example 1
In short: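 Lipid nanoparticles carrying 5 μg Luciferase-mRNA given by tail-vein injection to 6-8-week-old C57BL/6 mice. At 6 h, 3 mg D-luciferin i.p. in PBS; bioluminescence imaged 10 min later as the expression read-out.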

Structure (SMILES) | Local fluorescence intensity (C57BL/6 mice [1]; compounds of Example 1) | Fluorescence intensity of liver (C57BL/6 mice [2]) | Local fluorescence intensity (C57BL/6 mice [1]; compounds of Example 2) | Fluorescence intensity of spleen (C57BL/6 mice [2]; compounds of Example 2) | further results
CCCCCCCCCCSSCCC(=O)N(CCCC(=O)OC)C(C(=O)NCCN(CCNC(=O)C(C(C)C)N(CCCC(=O)OC)C(=O)CCSSCCCCCCCCCC)CCNC(=O)C(C(C)C)N(CCCC(=O)OC)C(=O)CCSSCCCCCCCCCC)C(C)C (stereo not drawn) [A1I5R38S15] | – | – | – | – | Local fluorescence intensity (C57BL/6 mice [1]; compounds of Example 3): 4.72E+04; Fluorescence intensity of spleen (C57BL/6 mice [2]; compounds of Example 3): 1.14E+05
CCCCCCCCCCSSCCC(=O)N(CCCC(=O)OCC)C(C(=O)NCCN(CCNC(=O)C(C(C)C)N(CCCC(=O)OCC)C(=O)CCSSCCCCCCCCCC)CCNC(=O)C(C(C)C)N(CCCC(=O)OCC)C(=O)CCSSCCCCCCCCCC)C(C)C (stereo not drawn) [A1I5R39S15] | – | – | – | – | Local fluorescence intensity (C57BL/6 mice [1]; compounds of Example 3): 2.15E+04; Fluorescence intensity of spleen (C57BL/6 mice [2]; compounds of Example 3): 3.88E+04
CCCCCCCCCCSSCCC(=O)N(C(C)C(=O)OC)C(C(=O)NCCN(CCNC(=O)C(C(C)C)N(C(=O)CCSSCCCCCCCCCC)C(C)C(=O)OC)CCNC(=O)C(C(C)C)N(C(=O)CCSSCCCCCCCCCC)C(C)C(=O)OC)C(C)C (stereo not drawn) [A1I5R40S15] | – | – | – | – | Local fluorescence intensity (C57BL/6 mice [1]; compounds of Example 3): 3.86E+05; Fluorescence intensity of spleen (C57BL/6 mice [2]; compounds of Example 3): 1.39E+04
CCCCCCCCCCSSCCC(=O)N(CS(=O)(=O)O)C(C(=O)NCCN(CCNC(=O)C(C(C)C)N(CS(=O)(=O)O)C(=O)CCSSCCCCCCCCCC)CCNC(=O)C(C(C)C)N(CS(=O)(=O)O)C(=O)CCSSCCCCCCCCCC)C(C)C (stereo not drawn) [A1I5R41S15] | – | – | – | – | Local fluorescence intensity (C57BL/6 mice [1]; compounds of Example 3): 1.81E+05; Fluorescence intensity of spleen (C57BL/6 mice [2]; compounds of Example 3): 4.22E+05
CCCCCCCCCCCCNC(=O)C(C(C)C)N(CCN(CCN(C(=O)CO)C(C(=O)NCCCCCCCCCCCC)C(C)C)CCN(C(=O)CO)C(C(=O)NCCCCCCCCCCCC)C(C)C)C(=O)CO (stereo not drawn) [A1I12R47C21] | – | – | – | – | Local fluorescence intensity (C57BL/6 mice [1]; compounds of Example 5): 2.22E+05; Fluorescence intensity of spleen (C57BL/6 mice [2]; compounds of Example 5): 3.10E+05
CCCCC/C=C\C/C=C\CCCCCCCC(=O)N(CCCN(C)C)C(C(=O)NCCCCCCCCCCCCCCCCCC)C(C)C (stereo not drawn) [A1I18R2C18-2] | 7.88E+04 | 5.42E+04 | – | – | –
CCCCCCCCCCCCCCCCCCNC(=O)C(C(C)C)N(CCCN(C)C)C(=O)CCCCCCCCCCCCCCCCC (stereo not drawn) [A1I18R2C18] | 1.36E+05 | 2.26E+04 | – | – | –
CCCCC/C=C\C/C=C\CCCCCCCC(=O)N(CCCN1CCOCC1)C(C(=O)NCCCCCCCCCCCCCCCCCC)C(C)C (stereo not drawn) [A1I18R5C18-2] | 8.15E+04 | 3.77E+03 | – | – | –
CCCCCCCCCCCCCCCCCCNC(=O)C(C(C)C)N(CCCN1CCOCC1)C(=O)CCCCCCCCCCCCCCCCC (stereo not drawn) [A1I18R5C18] | 5.25E+04 | 1.16E+03 | – | – | –
CCCCC/C=C\C/C=C\CCCCCCCC(=O)N(CCN1CCCCC1)C(C(=O)NCCCCCCCCCCCCCCCCCC)C(C)C (stereo not drawn) [A1I18R12C18-2] | 3.38E+06 | 1.41E+03 | – | – | –
CCCCCCCCCCCCCCCCCCNC(=O)C(C(C)C)N(CCN1CCCCC1)C(=O)CCCCCCCCCCCCCCCCC (stereo not drawn) [A1I18R12C18] | 4.37E+04 | – | – | – | Bioluminescence intensity (C57BL/6 mice [2]): 9.34E+02
CCCCC/C=C\C/C=C\CCCCCCCC(=O)N(CCN(CCN(C(=O)CCCCCCC/C=C\C/C=C\CCCCC)C(C(=O)NCCOC)C(C)C)CCN(C(=O)CCCCCCC/C=C\C/C=C\CCCCC)C(C(=O)NCCOC)C(C)C)C(C(=O)NCCOC)C(C)C (stereo not drawn) [A1I31R47C18-2] | – | – | – | – | Local fluorescence intensity (C57BL/6 mice [1]; compounds of Example 5): 2.24E+05; Fluorescence intensity of spleen (C57BL/6 mice [2]; compounds of Example 5): 6.90E+04
CCCCCCCC/C=C\CCCCCCCC(=O)N(CCO)C(C(=O)NCCN(C)CCNC(=O)C(C(CC)CCCC)N(CCO)C(=O)CCCCCCC/C=C\CCCCCCCC)C(CC)CCCC (stereo not drawn) [A4I4R22C18-1] | – | – | 5.47E+05 | 6.82E+05 | –
CCCCC/C=C\C/C=C\CCCCCCCC(=O)N(CCO)C(C(=O)NCCN(C)CCNC(=O)C(C(CC)CCCC)N(CCO)C(=O)CCCCCCC/C=C\C/C=C\CCCCC)C(CC)CCCC (stereo not drawn) [A4I4R22C18-2] | – | – | 4.66E+05 | 2.61E+05 | –
CCCCCCCCCCCCCCCCCC(=O)N(CCO)C(C(=O)NCCN(C)CCNC(=O)C(C(CC)CCCC)N(CCO)C(=O)CCCCCCCCCCCCCCCCC)C(CC)CCCC (stereo not drawn) [A4I4R22C18] | – | – | 5.53E+05 | 5.51E+05 | –
CCCCC/C=C\C/C=C\CCCCCCCC(=O)N(CCOC)C(C(=O)NCCN(C)CCNC(=O)C(C(CC)CCCC)N(CCOC)C(=O)CCCCCCC/C=C\C/C=C\CCCCC)C(CC)CCCC (stereo not drawn) [A4I4R23C18-2] | – | – | 1.93E+04 | 4.96E+05 | –
CCCCCCCCCCCCCCCCCC(=O)N(CCOC)C(C(=O)NCCN(C)CCNC(=O)C(C(CC)CCCC)N(CCOC)C(=O)CCCCCCCCCCCCCCCCC)C(CC)CCCC (stereo not drawn) [A4I4R23C18] | – | – | 6.36E+04 | 2.16E+05 | –

Structure (SMILES) | Local fluorescence intensity (C57BL/6 mice [1]; compounds of Example 1) | Fluorescence intensity of liver (C57BL/6 mice [2]) | Local fluorescence intensity (C57BL/6 mice [1]; compounds of Example 2) | Fluorescence intensity of spleen (C57BL/6 mice [2]; compounds of Example 2) | further results
CCCCCCCC/C=C\CCCCCCCC(=O)N(CCN(C)C)C(C(=O)NCCCCCCCCCCCCCCCCCC)C(CC)CCCC (stereo not drawn) [A4I18R1C18-1] | 1.54E+07 | – | – | – | Bioluminescence intensity (C57BL/6 mice [2]): 1.39E+07
CCCCC/C=C\C/C=C\CCCCCCCC(=O)N(CCN(C)C)C(C(=O)NCCCCCCCCCCCCCCCCCC)C(CC)CCCC (stereo not drawn) [A4I18R1C18-2] | 2.11E+07 | 9.67E+06 | – | – | –
CCCCCCCC/C=C\CCCCCCCC(=O)N(CCCN(C)C)C(C(=O)NCCCCCCCCCCCCCCCCCC)C(CC)CCCC (stereo not drawn) [A4I18R2C18-1] | 1.32E+07 | – | – | – | Bioluminescence intensity (C57BL/6 mice [2]): 1.33E+07
CCCCC/C=C\C/C=C\CCCCCCCC(=O)N(CCCN(C)C)C(C(=O)NCCCCCCCCCCCCCCCCCC)C(CC)CCCC (stereo not drawn) [A4I18R2C18-2] | 2.97E+07 | – | – | – | Bioluminescence intensity (C57BL/6 mice [2]): 2.06E+07
CCCCCCCCCCCCCCCCCCNC(=O)C(C(CC)CCCC)N(CCCN(C)C)C(=O)CCCCCCCCCCCCCCCCC (stereo not drawn) [A4I18R2C18] | 9.04E+05 | 5.05E+05 | – | – | –
CCCCCCCC/C=C\CCCCCCCC(=O)N(CCCN(CC)CC)C(C(=O)NCCCCCCCCCCCCCCCCCC)C(CC)CCCC (stereo not drawn) [A4I18R3C18-1] | 1.77E+07 | – | – | – | Bioluminescence intensity (C57BL/6 mice [2]): 1.39E+07
CCCCC/C=C\C/C=C\CCCCCCCC(=O)N(CCCN1CCOCC1)C(C(=O)NCCCCCCCCCCCCCCCCCC)C(CC)CCCC (stereo not drawn) [A4I18R5C18-2] | 4.99E+05 | 8.34E+03 | – | – | –
CCCCCCCCCCCCCCCCCCNC(=O)C(C(CC)CCCC)N(CCCN1CCOCC1)C(=O)CCCCCCCCCCCCCCCCC (stereo not drawn) [A4I18R5C18] | 4.33E+05 | 2.68E+03 | – | – | –
CCCCC/C=C\C/C=C\CCCCCCCC(=O)N(CCN1CCCCC1)C(C(=O)NCCCCCCCCCCCCCCCCCC)C(CC)CCCC (stereo not drawn) [A4I18R12C18-2] | 2.60E+05 | 9.22E+03 | – | – | –
CCCCCCCCCCCCCCCCCCNC(=O)C(C(CC)CCCC)N(CCN1CCCCC1)C(=O)CCCCCCCCCCCCCCCCC (stereo not drawn) [A4I18R12C18] | 1.75E+05 | 2.31E+03 | – | – | –
CCCCCCCC/C=C\CCCCCCCC(=O)N(CCO)C(C(=O)NCCN(C)CCNC(=O)C(C1CCCCC1)N(CCO)C(=O)CCCCCCC/C=C\CCCCCCCC)C1CCCCC1 (stereo not drawn) [A23I4R22C18-1] | – | – | 1.41E+05 | 6.57E+05 | –
CCCCC/C=C\C/C=C\CCCCCCCC(=O)N(CCO)C(C(=O)NCCN(C)CCNC(=O)C(C1CCCCC1)N(CCO)C(=O)CCCCCCC/C=C\C/C=C\CCCCC)C1CCCCC1 (stereo not drawn) [A23I4R22C18-2] | – | – | 9.09E+05 | 6.10E+05 | –
CCCCCCCCCCCCCCCCCC(=O)N(CCO)C(C(=O)NCCN(C)CCNC(=O)C(C1CCCCC1)N(CCO)C(=O)CCCCCCCCCCCCCCCCC)C1CCCCC1 (stereo not drawn) [A23I4R22C18] | – | – | 3.41E+04 | 4.61E+05 | –
CCCCCCCC/C=C\CCCCCCCC(=O)N(CCOC)C(C(=O)NCCN(C)CCNC(=O)C(C1CCCCC1)N(CCOC)C(=O)CCCCCCC/C=C\CCCCCCCC)C1CCCCC1 (stereo not drawn) [A23I4R23C18-1] | – | – | 5.87E+06 | 2.96E+05 | –
CCCCCCCCCCCCCCCCCC(=O)N(CCOC)C(C(=O)NCCN(C)CCNC(=O)C(C1CCCCC1)N(CCOC)C(=O)CCCCCCCCCCCCCCCCC)C1CCCCC1 (stereo not drawn) [A23I4R23C18] | – | – | 5.32E+05 | 1.49E+05 | –
CCCCC/C=C\C/C=C\CCCCCCCC(=O)N(CCCN(C)C)C(C(=O)NCCCCCCCCCCCCCCCCCC)C1CCCCC1 (stereo not drawn) [A23I18R2C18-2] | 7.16E+05 | 1.52E+06 | – | – | –
